Patent US20110173718A1, “HERBICIDE TOLERANT PLANTS” (SYNGENTA CROP PROTECTION, INC., priority 2008, published 2011)
Several values for one entry are separate records, joined by “and”; a condition that tells them apart may be missing. Equal entries are not always repeated.

Key:
[1] = test system: tobacco plants expressing Pseudomonas fluorescens HPPD; experiment: Glasshouse spray test, Pseudomonas HPPD transgenic tobacco; assay type: in vivo; conditions: for % damage observed 16 DAT: Pseudomonas HPPD T1; for % damage at 7 DAT: C2 line (Pseudomonas HPPD, T2), individual plants
Excerpt: Tobacco plants expressing the wild-type HPPD gene of Pseudomonas fluorescens strain 87-79 under operable control of the double enhanced 35S CMV promoter region, Nos3′ terminator and TMV translational enhancer were provided as detailed in Example 4 of WO0246387.
Seed of wild-type tobacco plants, C2 tobacco plants and of the T1 progeny of a further Arabidopsis-HST expressing tobacco line, D2 were planted out in 3 inch pots, grown on, sprayed with compounds 1.1, 2.30 and 3.6 at the rates shown in table 5. Percent damage scores were assessed at 7 DAT. Aside from the presumptive non-transgenic segregants the D2 line containing the Arabidopis HST expression construct offered the highest level of tolerance to the two HST herbicides with the Psuedomonas HPPD, C2 line, offering only marginal tolerance under the conditions of this test.
Transgenic lines of tobacco, soyabean and corn etc. can be engineered to express various heterologous HPPDs derived from, for example Avena (SEQ ID #26), Wheat (SEQ ID #27), Pseudomonas fluorescens (SEQ ID # 25) and Shewanella colwelliana (SEQ ID #28) as, for example, described in WO 02/46387.
Single copy events amongst the T1 plant lines are identified by their 3:1 segregation ratio (wrt kanamycin and or herbicide) and by quantitative RT-PCR. Seed from the thus selected T1 tobacco (var Samsun) lines are sown in 3 inch diameter pots containing 50% peat, 50% John Innes soil no 3. After growth to the 3 leaf stage, plants are sprayed, as described above, in order to test for herbicide tolerance relative to like-treated non-transgenic tobacco plants.
Control tobacco plants and transgenic T1 plants expressing either the Pseudomonas or the wheat HPPD gene are sprayed at 37, 111, 333 and 1000 g/ha rates of HST inhibitors and, for example, compound 2.3.
Plants are assessed and scored for % damage at 16 DAT.

[2] = test system: HST in spinach chloroplast extract; experiment: HST assay (TLC, MFBQ formed), spinach chloroplast extract; assay type: biochemical; conditions: 25 ppm; TLC, estimated amount of MFBQ formed, relative to controls
Protocol: HST enzyme preparations for assay are also prepared directly from fresh plant material. For example HST enzyme preparations are from spinach. In the first step intact spinach chloroplasts are prepared from two lots of 500 g of fresh baby spinach leaves (e.g from the salad section of the local supermarket). Prepacked spinach is usually already washed, but if buying loose leaves these must be rinsed in water before proceeding. Stalks, large leaves and mid-ribs are removed. Each 500 g lot of leaves is added to 1.5 l of ‘Grinding medium’ in a 2 L plastic beaker. Grinding medium is cold (4° C.) 50 mM Tricine/NaOH buffer at pH 7.1 containing 330 mM glucose, 2 mM sodium isoascorbate, 5 mM MgCl2 and 0.1% bovine serum albumen The beaker, kept at 4° C., is placed under a Polytron 6000 blender, fitted with a 1.5″cutting probe and the mixture blended in short bursts of 5-8 sec up to 8-10K rpm until all the leaves are macerated. The homogenate is filtered into a 5 L beaker (embedded in an ice bucket) through four layers of muslin, and two layers of 50μ mesh nylon cloth. The filtrate is transferred to 250 ml buckets of a Beckman GS-6 centrifuge and spun at […] (3020 rpm) for 2 min at 4° C. The supernatant is drained away and discarded to leave a sediment of chloroplasts. Chloroplasts are resuspended in a few ml of cold resuspension medium by gentle swirling and gentle use of a quill brush soaked in resuspension medium. Resuspension medium is 50 mM Hepes/KOH pH 7.8 containing 330 mM sorbitol, 2 mM EDTA, 5 mM KH2PO4, 2 mM MgCl2 and 0.1% bovine serum albumen at 4° C. The chloroplasts are resuspended in 5-10 ml of resuspension buffer, recentrifuged down and resuspended again in order to wash them. The chloroplasts are then once again centrifuged down and then broken by resuspension in about 5 ml of 50 mM Tricine-NaOH pH 7.8 to a protein concentration of about 40 mg/ml. The solution is stored frozen at −80° C. in aliquots. This resuspension is defrosted and used directly in HST activity assays. Alternatively, chloroplasts are prepared resuspended in 50 mM Tris/HCl buffer at pH 7.8 containing 330 mM sorbitol (alternative resuspension buffer) and layered on top of a percol gradient (comprising the same buffer containing 45% percol), spun down, the intact chloroplast fraction taken and washed 2 or 3 times in the alternative resuspension buffer and then spun down again, resuspended in breaking buffer (without sorbitol), flash frozen and stored in aliquots at −80° C.
Prenyltransferase (HST) activities are measured by determining the prenylation rates of [U—^14C]homogentisate using farnesyl diphosphate (FDP) as prenyl donor. ^14C homogentisate is prepared from ^14C tyrosine using L amino acid oxidase and HPPD. For inhibitor testing, compounds are dissolved in dimethylsulfoxide (DMSO). DMSO added at up to 2% v/v has no effect on assays. Control assays contain DMSO at the same concentration as in inhibitor containing assays.
Assays using spinach chloroplast extracts (100 μl final volume) contain up to 2 mg of chloroplast protein, 50 mM Tricine-NaOH pH 8.5, 50 mM MgCl2, 200 μM farnesyl diphosphate (FDP) and 26 μM ^14C-homogentisate (167 dpm/pmol). Assays are run for about an hour at 28° C. […] Lipophilic reactions products are extracted and analyzed essentially as described in the literature.
Using the above assays percentage inhibition of the amount of MFBQ formed at a range of doses of inhibitors relative to the control amount obtained with no inhibitor present is reported (Table 1). The better inhibitors give greater percentage inhibition at lower doses.

[3] = test system: tobacco (var Samsun) plantlets on liquid culture medium; experiment: HST + HPPD herbicide effects on tobacco seedlings on liquid culture medium; assay type: in vivo; conditions: for % Injury, plus Mesotrione (0.0005 ppm) / % Injury, plus Mesotrione (0.001 ppm) / % Injury (bleaching), compound 2.13 only / % Injury (bleaching), mesotrione by itself: 20 DAT; for % Injury (bleaching), mesotrione by itself: 0.75% v/v DMSO
Protocol: In an alternative herbicide test procedure tobacco (var Samsun) plantlets germinated aseptically in agar made up in 1/3 strength Murashige and Skoog salts medium are transferred after 4 d to float on top of 2.9 ml of sterile liquid culture medium (half strength Murashige and Skoog medium containing 30 mM sucrose) in wells of 12 well plates. Test compounds are added at various doses and bleaching damage is assessed after 14-20 DAT. The plantlets are kept covered under clear perspex and grown at 18° C. (night) and 24° C. (day) under a 1611 day (˜500-900 umol/m^2), 8 h darkness regime Plantlets continue to grow and produce new tissue over the 14-20 DAT period but are bleached and grow less in the presence of controlling concentrations of herbicide.

[4] = range of rates of compound 2.13 plus the higher dose of mesotrione

SMILES: O=c1c(-c2c(F)ccc(F)c2Cl)c(O)c2nccnc2n1CC(F)F [Compound 2.3]
- % damage observed 16 DAT ([1]; 37 g/ha): 0%
- % damage observed 16 DAT ([1]; 111 g/ha): 3%
- % damage observed 16 DAT ([1]; 333 g/ha): 6%
- % damage observed 16 DAT ([1]; 1000 g/ha): 10%

SMILES: O=c1c(-c2c(F)ccc(Br)c2Cl)c(O)c2nccnc2n1CC(F)F [Compound 2.8]
- Spinach chloroplast extract % I at 25 ppm [2]: 70%

SMILES: O=c1c(-c2cc(C(F)(F)F)ccc2Cl)c(O)c2nccnc2n1CC(F)F [Compound 2.9]
- Spinach chloroplast extract % I at 25 ppm [2]: 90%

SMILES: O=c1c(-c2c(F)ccc(F)c2Cl)c(O)c2cccnc2n1CC(F)F [Compound 2.13]
- Spinach chloroplast extract % I at 25 ppm [2]: 40%
- % Injury, plus Mesotrione (0.0005 ppm) ([3]; compound 2.13 0.01 ppm + mesotrione 0.0005 ppm, liquid culture): 0%
- % Injury, plus Mesotrione (0.001 ppm) ([3]; compound 2.13 0.01 ppm + mesotrione 0.001 ppm, liquid culture): 40%
- % Injury (bleaching), compound 2.13 only ([3]; compound 2.13 0.01 ppm, liquid culture): 0%
- % Injury, plus Mesotrione (0.0005 ppm) ([3]; compound 2.13 0.03 ppm + mesotrione 0.0005 ppm, liquid culture): 0%
- % Injury, plus Mesotrione (0.001 ppm) ([3]; compound 2.13 0.03 ppm + mesotrione 0.001 ppm, liquid culture): 60%
- % Injury (bleaching), compound 2.13 only ([3]; compound 2.13 0.03 ppm, liquid culture): 0%
- % Injury, plus Mesotrione (0.0005 ppm) ([3]; compound 2.13 0.09 ppm + mesotrione 0.0005 ppm, liquid culture): 0%
- % Injury, plus Mesotrione (0.001 ppm) ([3]; compound 2.13 0.09 ppm + mesotrione 0.001 ppm, liquid culture): 80%
- % Injury (bleaching), compound 2.13 only ([3]; compound 2.13 0.09 ppm, liquid culture): 0%
- % Injury, plus Mesotrione (0.0005 ppm) ([3]; compound 2.13 0.28 ppm + mesotrione 0.0005 ppm, liquid culture): 0%
- % Injury, plus Mesotrione (0.001 ppm) ([3]; compound 2.13 0.28 ppm + mesotrione 0.001 ppm, liquid culture): 80%
- % Injury (bleaching), compound 2.13 only ([3]; compound 2.13 0.28 ppm, liquid culture): 0%
- % Injury, plus Mesotrione (0.0005 ppm) ([3]; compound 2.13 0.85 ppm + mesotrione 0.0005 ppm, liquid culture): 40%
- % Injury, plus Mesotrione (0.001 ppm) ([3]; compound 2.13 0.85 ppm + mesotrione 0.001 ppm, liquid culture): 90%
- % Injury (bleaching), compound 2.13 only ([3]; compound 2.13 0.85 ppm, liquid culture): 0%
- % Injury, plus Mesotrione (0.0005 ppm) ([3]; compound 2.13 2.56 ppm + mesotrione 0.0005 ppm, liquid culture): 90%
- % Injury, plus Mesotrione (0.001 ppm) ([3]; compound 2.13 2.56 ppm + mesotrione 0.001 ppm, liquid culture): 90%
- % Injury (bleaching), compound 2.13 only ([3]; compound 2.13 2.56 ppm, liquid culture): 0%
- % Injury, plus Mesotrione (0.0005 ppm) ([3]; compound 2.13 7.67 ppm + mesotrione 0.0005 ppm, liquid culture): 100%
- % Injury, plus Mesotrione (0.001 ppm) ([3]; compound 2.13 7.67 ppm + mesotrione 0.001 ppm, liquid culture): 100%
- % Injury (bleaching), compound 2.13 only ([3]; compound 2.13 7.67 ppm, liquid culture): 50%
- % Injury, plus Mesotrione (0.0005 ppm) ([3]; compound 2.13 23 ppm + mesotrione 0.0005 ppm, liquid culture): 100%
- % Injury, plus Mesotrione (0.001 ppm) ([3]; compound 2.13 23 ppm + mesotrione 0.001 ppm, liquid culture): 100%
- % Injury (bleaching), compound 2.13 only ([3]; compound 2.13 23 ppm, liquid culture): 100%
- bleaching expected (Colby) [3, 4]: 20%
- bleaching observed [3, 4]: 80% and 90%

SMILES: O=c1c(-c2c(Cl)ccc(Cl)c2Cl)c(O)c2nccnc2n1CC(F)F [Compound 2.14]
- Spinach chloroplast extract % I at 25 ppm [2]: 80%

SMILES: O=c1c(-c2c(F)ccc(Br)c2Cl)c(O)c2cccnc2n1CC(F)F [Compound 2.15]
- % bleaching, +mesotrione 0.001 ppm ([3]; 0.19 ppm + mesotrione 0.001 ppm, liquid culture medium, 14 DAT): 0%
- % bleaching, HST herbicide alone ([3]; 0.19 ppm, liquid culture medium, 14 DAT): 5%
- % bleaching, +mesotrione 0.001 ppm ([3]; 0.58 ppm + mesotrione 0.001 ppm, liquid culture medium, 14 DAT): 5%
- % bleaching, HST herbicide alone ([3]; 0.58 ppm, liquid culture medium, 14 DAT): 0%
- % bleaching, +mesotrione 0.001 ppm ([3]; 1.7 ppm + mesotrione 0.001 ppm, liquid culture medium, 14 DAT): 80%
- % bleaching, HST herbicide alone ([3]; 1.7 ppm, liquid culture medium, 14 DAT): 5%
- % bleaching, +mesotrione 0.001 ppm ([3]; 5.2 ppm + mesotrione 0.001 ppm, liquid culture medium, 14 DAT): 70%
- % bleaching, HST herbicide alone ([3]; 5.2 ppm, liquid culture medium, 14 DAT): 40%
- % bleaching, +mesotrione 0.001 ppm ([3]; 16 ppm + mesotrione 0.001 ppm, liquid culture medium, 14 DAT): 100%
- % bleaching, HST herbicide alone ([3]; 16 ppm, liquid culture medium, 14 DAT): 100%
- % bleaching, +mesotrione 0.001 ppm ([3]; 47 ppm + mesotrione 0.001 ppm, liquid culture medium, 14 DAT): 100%
- % bleaching, HST herbicide alone ([3]; 47 ppm, liquid culture medium, 14 DAT): 100%
- effect of low amounts of mesotrione on the injury down the dose response ([3]; liquid culture, repeat experiments): clear synergistic effects

SMILES: CC(C)C(=O)Oc1c(-c2c(F)ccc(Br)c2Cl)c(=O)n(CC(F)F)c2nccnc12 [Compound 2.30]
- % damage at 7 DAT ([1]; 150 gai/ha): 90% and 70% and 80% (2×)
- % damage at 7 DAT ([1]; 300 gai/ha): 85%
- % damage at 7 DAT ([1]; 450 gai/ha): 65% and 70% and 85% (2×)

SMILES: CS(=O)(=O)c1ccc(C(=O)C2C(=O)CCCC2=O)c([N+](=O)[O-])c1 [Mesotrione, mesotrione, reference compound]
- % damage observed 16 DAT ([1]; 37 g/ha): 3%
- % damage observed 16 DAT ([1]; 111 g/ha): 3%
- % damage observed 16 DAT ([1]; 333 g/ha): 43%
- % damage observed 16 DAT ([1]; 1000 g/ha): 67%
- damage by mesotrione alone ([3]; lower dose of mesotrione used in the mixtures): no visible damage
- % Injury (bleaching), mesotrione by itself ([3]; mesotrione 0.0005 ppm, liquid culture): 0%
- % bleaching, mesotrione by itself ([3]; mesotrione 0.001 ppm, 0.75% DMSO, liquid culture medium, 14 DAT): 5%
- % Injury (bleaching), mesotrione by itself ([3]; mesotrione 0.001 ppm, liquid culture): 20%
